Data reported in ChEMBL document CHEMBL1201862, “PubChem BioAssay data set” (2004).
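Protocol summary: plate cells (96-well), add compound at 5 concentrations, incubate 48 h, interpolate endpoints linearly. GI50 = concentration required for 50% inhibition of growth.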 Activity calls are given as the source filed them. Rule as the data show it: active = GI50 up to about 1.1 µM and inactive = higher.

How the values were obtained:
Experiment in all cases: NCI-60 cell line screen, 48 h
SNB-19 = test system: SNB-19
NCI/ADR-RES = test system: NCI/ADR-RES
SN12C = test system: SN12C
Malme-3M = test system: Malme-3M
UACC-257 = test system: UACC-257
IGROV-1 = test system: IGROV-1
U-251 = test system: U-251
CAKI-1 = test system: CAKI-1
PC-3 = test system: PC-3
SK-MEL-5 = test system: SK-MEL-5
SNB-75 = test system: SNB-75
HCC 2998 = test system: HCC 2998
OVCAR-4 = test system: OVCAR-4
OVCAR-3 = test system: OVCAR-3
ACHN = test system: ACHN
Hs-578T = test system: Hs-578T
A498 = test system: A498
UO-31 = test system: UO-31
HOP-92 = test system: HOP-92

Measured: GI50

Cc1ccc(C2=NOC(=O)[C@@H]3CCCC[C@@H]23)cc1
inactive: SNB-19 > 100 µM | NCI/ADR-RES > 100 µM | SN12C > 100 µM | Malme-3M > 100 µM | UACC-257 > 100 µM | IGROV-1 > 100 µM | U-251 > 100 µM | CAKI-1 > 100 µM | PC-3 > 100 µM | SK-MEL-5 > 100 µM | SNB-75 > 100 µM | HCC 2998 > 100 µM | OVCAR-4 > 100 µM | OVCAR-3 > 100 µM | ACHN > 100 µM | Hs-578T > 100 µM | A498 > 100 µM | UO-31 > 100 µM

CC(=O)c1c2c(cc3c1CC1(Cc4cc5c(cc4C1=O)CCC5)C3)CCC2 (configuration not stated)
inactive: SNB-19 > 100 µM | NCI/ADR-RES 22.5 µM | SN12C > 61.4 µM | Malme-3M 39.1 µM | UACC-257 13.2 µM | IGROV-1 > 100 µM | U-251 > 77.1 µM | CAKI-1 17.3 µM | PC-3 13.1 µM | SK-MEL-5 12.1 µM | SNB-75 > 78 µM | HCC 2998 72.9 µM | OVCAR-4 38.5 µM | OVCAR-3 > 62.4 µM | ACHN > 68.7 µM | Hs-578T > 100 µM | A498 > 100 µM | UO-31 36.9 µM

O=C1c2cc(Cl)ccc2-n2c(noc2=O)C2CSCN12 (configuration not stated)
inactive: SNB-19 > 100 µM | NCI/ADR-RES > 100 µM | SN12C > 100 µM | Malme-3M > 100 µM | UACC-257 > 100 µM | IGROV-1 > 100 µM | U-251 > 100 µM | CAKI-1 > 100 µM | PC-3 > 100 µM | SK-MEL-5 > 100 µM | SNB-75 > 100 µM | HCC 2998 > 100 µM | OVCAR-4 > 100 µM | OVCAR-3 > 100 µM | ACHN > 100 µM | Hs-578T > 100 µM | A498 > 100 µM | UO-31 > 100 µM

[N-]=[N+]=NC1(c2ccccc2)C(=O)c2cccc3c4ccccc4n(c23)C1=O (configuration not stated)
inactive: SNB-19 > 100 µM | NCI/ADR-RES 33.5 µM | SN12C > 100 µM | Malme-3M > 100 µM | UACC-257 > 100 µM | IGROV-1 > 100 µM | U-251 > 100 µM | CAKI-1 > 100 µM | PC-3 > 100 µM | SK-MEL-5 > 100 µM | SNB-75 > 100 µM | HCC 2998 > 100 µM | OVCAR-4 > 100 µM | OVCAR-3 46.3 µM | ACHN > 100 µM | Hs-578T > 100 µM | A498 > 100 µM | UO-31 > 100 µM

NC(=O)Cn1c(=O)oc2cc(C(=O)CN3CCOCC3)ccc21
inactive: SNB-19 > 100 µM | NCI/ADR-RES > 100 µM | SN12C > 100 µM | Malme-3M > 100 µM | IGROV-1 > 100 µM | U-251 > 100 µM | CAKI-1 > 100 µM | PC-3 > 100 µM | SK-MEL-5 > 100 µM | SNB-75 18.5 µM | OVCAR-3 > 100 µM | Hs-578T > 100 µM | A498 > 100 µM

O=C(O)c1ccccc1CC1Cc2ccc3c(c2C1=O)CCC3 (configuration not stated)
inactive: SNB-19 > 100 µM | NCI/ADR-RES > 100 µM | SN12C > 100 µM | Malme-3M > 100 µM | UACC-257 > 100 µM | IGROV-1 > 100 µM | U-251 > 100 µM | CAKI-1 > 100 µM | PC-3 > 100 µM | SK-MEL-5 > 100 µM | SNB-75 87.1 µM | HCC 2998 > 100 µM | OVCAR-4 > 100 µM | OVCAR-3 > 100 µM | HOP-92 > 100 µM | ACHN > 100 µM | Hs-578T > 100 µM | UO-31 > 100 µM

Cc1nc(OCc2ccccc2)c2ncn(CCO)c2n1
inactive: SNB-19 > 100 µM | NCI/ADR-RES > 100 µM | SN12C > 100 µM | UACC-257 > 100 µM | IGROV-1 > 100 µM | U-251 > 100 µM | CAKI-1 > 100 µM | PC-3 > 100 µM | SK-MEL-5 > 100 µM | OVCAR-4 > 100 µM | OVCAR-3 > 100 µM | HOP-92 51.8 µM | ACHN > 100 µM | Hs-578T > 100 µM | A498 > 100 µM | UO-31 > 100 µM

CSCC[C@H]1C(=O)N=C(N)N1C(=O)OCc1ccccc1
inactive: SNB-19 > 100 µM | NCI/ADR-RES 30.8 µM | SN12C 31 µM | Malme-3M 33.3 µM | UACC-257 40.6 µM | IGROV-1 63.7 µM | U-251 34.9 µM | CAKI-1 20 µM | PC-3 50.4 µM | SK-MEL-5 46.8 µM | SNB-75 60.7 µM | HCC 2998 95.9 µM | OVCAR-4 46.5 µM | OVCAR-3 38.7 µM | ACHN 34.7 µM | Hs-578T 18 µM | A498 72.9 µM | UO-31 30.8 µM
